Test [1] concerns the target T1, human GluN1/GluN2A NMDARs (Homo sapiens, UniProt Q05586+Q12879).
T1 construct: host or cells: HEK293
Description: Automated patch clamp, NMDARs in HEK293 cells. Format: cell-based. Particulars: +40 mV; glycine 100 μM plus NMDA 90 μM; stable HEK293. The protocol: (§1) Recombinant human GluN1 (UniProt ID Q05586) with GluN2A (Uniprot Q12879) or GluN2B (Uniprot Q13224) NMDARs were stably expressed under tetracycline control in HEK293 cell lines (Charles River). Voltage-clamp recordings were performed using the Sophion Qube platform which performs 384 parallel and independent patch-clamp recordings with digitally controlled microfluidics (Tecan D300) on a disposable single-hole or multi-hole QChip. The following extracellular solution was used: 145 mM NaCl, 4 mM KCl, 10 mM HEPES, 10 mM glucose, 2 mM CaCl2, 1 mM MgCl2; pH 7.4. The following intracellular solution was used: 70 mM CsF, 70 mM CsCl, 10 mM HEPES, 1 mM EGTA; 316 mOsm, pH 7.2. For analysis of channel activation kinetics, cells were held at −70 mV and stepped to −20 mV before the application of glycine (100 μM) plus NMDA (90 μM for GluN1/GluN2A and 40 μM for GluN1/GluN2B). […] Quality control thresholds were set according to the seal resistance (minimum […]), and failed experiments were excluded from the analysis. For analysis of steady state agonist IC50 values, voltage steps to +40 mV were performed in the presence and absence of agonists before and after compound application in the same cell. IC50 data were generated from agonist responses as described before.[20]
(§2) Figure S1. Analysis of IC50 values of FP802 for NMDARs in HEK293 cells. […] The effects of FP802 on NMDARs were evaluated at +40 […]
For orientation: In patch-clamp work, channel activity is measured electrically.

The target in test [2] is T2, human GluN1/GluN2B NMDARs (Homo sapiens, UniProt Q05586+Q13224).
T2 construct: host or cells: HEK293
Description: Automated patch clamp, NMDARs in HEK293 cells. Format: cell-based. The note with it: +40 mV; glycine 100 μM plus NMDA 40 μM; stable HEK293. On the procedure:
as §1, §2

Test [3] relates to primary mouse cortical neurons. Description: Glutamate neurotoxicity assay in primary cortical neurons. Format: cell-based. The note with it: Cortical neurone, 20 μM glutamate, compound added 30 min prior, nuclear mCherry-positive neurons, read-out: IC50, protective activity against glutamate-mediated neurotoxicity. The protocol: On DIV10, vehicle (DMSO) or FP802 were added to the primary cortical cultures 30 min prior to glutamate insult. Images were acquired following the glutamate application for 24 h with 2 h intervals, where 9 images were obtained via a 20x objective for each condition at each time point with IncuCyte S3 Live-Cell Analysis System (Sartorius AG, Germany).

In another test the test system is SOD1^G93A mice. Description: Post-onset treatment of the SOD1G93A ALS mouse model. Format: in vivo. The source says:
Heterozygous SOD1^G93A transgenic mice expressing human SOD1^G93A mutant on a C57BL/6 background (Jackson Laboratory, 004435, RRID:IMSR_JAX:004435) were used in this study.[24]^,[34] Heterozygosity was maintained by mating heterozygous transgenic males with C57BL/6 wild-type females. The animals were provided by the interdisciplinary neurobehavioral core (INBC) at Heidelberg University. Only male wild-type mice and male transgenic mice were used in the experiments. They were housed in groups (maximally three mice/cage) in the INBC, where all behavior experiments were performed. All mice were kept in standard cages (15 cm × 21 cm × 13.5 cm) on a 12:12 h light:dark cycle with ad libitum access to food, water, and nesting material. The treatments were randomly allocated to mice within litter blocks. The experimenter was blinded to the experimental group from the implantation until all analyses were done.
A total of 83 heterozygous SOD1^G93A and 22 wild-type littermates were employed in this study. Eight WT and 12 SOD1^G93A mice were used to determine the EAAT2 protein levels in the spinal cord. Three SOD1^G93A mice were treated with FP802 to explore the concentration of FP802 in the spinal cord. Four SOD1^G93A mice were used to test the tolerability of mice to subcutaneously ALZET osmotic pump (type 2004) implantation with FP802 that allowed a continuous and constant supply of compound to the animals for 4 weeks. Eight wild-type mice were used to explore the disruption of the NMDAR/TRPM4 death signaling complex by FP802. In total, 52 SOD1^G93A mice were treated with FP802 or vehicle via ALZET osmotic pump from week 15 for 30 days (four cohorts). It was not possible to extend the treatment beyond the 30 days application period because the poor health state of many animals was incompatible with the anesthesia required for surgical implantation of a second osmotic pump. The number of animals used for experiments was specified in the figure legends. […] In addition, six wild-type littermates and 12 SOD1^G93A mice were used at week 19 and week 15, respectively, for the analysis of motor neuron survival and serum NfL levels. For the analysis of motor neuron survival, three mice (two from wild-type littermates, one from vehicle-treated SOD1^G93A mice) were excluded from the motor neuron survival because of the loss of sample during preparation.
Bodyweight and neurological scores were examined weekly starting at the onset of symptoms at week 15, which has been defined by previous studies with the same mouse line.[33]^,[34] Neurological scores of the mice were recorded as 0–4 based on the behavior of their hind limbs.[46] The humane endpoint was defined as the mouse’s inability to rectify itself in 30 s and examined daily from week 19 without knowing the treatment group.
Before experiments, mice were habituated to the experimenter and testing room by gentle handling for 1 min in 3 consecutive days. A brief video was taken in the behavior room where the SOD1^G93A mice were placed in an open chamber. On the experimental day, the mice were placed into an open arena (50 cm × 50 cm × 50 cm) for a total of 10 min experiment. The total traveled distance of each mouse was traced and analyzed with SYGNIS software, and also the rearing time was reordered without knowledge of the treatment.
The survival of motor neurons was examined by quantifying the motor neuron marker, choline acetyltransferase (ChAT)-positive neurons, and the inflammation was examined by quantifying the microglial cell marker, ionized calcium binding adaptor molecule 1 (Iba1), in the ventral horn of lumbar spinal cord (L3-L5). All control mice and SOD1 mice were perfused with 20 mL PBS followed by 20 mL of 4% paraformaldehyde in PBS. The lumbar spinal cord was dissected and post-fixed in the same solution for an additional 10 min, followed by 24 h incubation with 30% sucrose solution in PBS. […]

Setting [4] is: FP802 for 4 weeks from week 15, vs vehicle.

From article PMC10897598, “TwinF interface inhibitor FP802 stops loss of motor neurons and mitigates disease progression in a mouse model of ALS” (Cell Reports Medicine, 2024) come the findings set out here.

Structures are written as SMILES. Bounds are passed on as bounds.

T1 sequence (Q12879 23-1464, other chains not shown): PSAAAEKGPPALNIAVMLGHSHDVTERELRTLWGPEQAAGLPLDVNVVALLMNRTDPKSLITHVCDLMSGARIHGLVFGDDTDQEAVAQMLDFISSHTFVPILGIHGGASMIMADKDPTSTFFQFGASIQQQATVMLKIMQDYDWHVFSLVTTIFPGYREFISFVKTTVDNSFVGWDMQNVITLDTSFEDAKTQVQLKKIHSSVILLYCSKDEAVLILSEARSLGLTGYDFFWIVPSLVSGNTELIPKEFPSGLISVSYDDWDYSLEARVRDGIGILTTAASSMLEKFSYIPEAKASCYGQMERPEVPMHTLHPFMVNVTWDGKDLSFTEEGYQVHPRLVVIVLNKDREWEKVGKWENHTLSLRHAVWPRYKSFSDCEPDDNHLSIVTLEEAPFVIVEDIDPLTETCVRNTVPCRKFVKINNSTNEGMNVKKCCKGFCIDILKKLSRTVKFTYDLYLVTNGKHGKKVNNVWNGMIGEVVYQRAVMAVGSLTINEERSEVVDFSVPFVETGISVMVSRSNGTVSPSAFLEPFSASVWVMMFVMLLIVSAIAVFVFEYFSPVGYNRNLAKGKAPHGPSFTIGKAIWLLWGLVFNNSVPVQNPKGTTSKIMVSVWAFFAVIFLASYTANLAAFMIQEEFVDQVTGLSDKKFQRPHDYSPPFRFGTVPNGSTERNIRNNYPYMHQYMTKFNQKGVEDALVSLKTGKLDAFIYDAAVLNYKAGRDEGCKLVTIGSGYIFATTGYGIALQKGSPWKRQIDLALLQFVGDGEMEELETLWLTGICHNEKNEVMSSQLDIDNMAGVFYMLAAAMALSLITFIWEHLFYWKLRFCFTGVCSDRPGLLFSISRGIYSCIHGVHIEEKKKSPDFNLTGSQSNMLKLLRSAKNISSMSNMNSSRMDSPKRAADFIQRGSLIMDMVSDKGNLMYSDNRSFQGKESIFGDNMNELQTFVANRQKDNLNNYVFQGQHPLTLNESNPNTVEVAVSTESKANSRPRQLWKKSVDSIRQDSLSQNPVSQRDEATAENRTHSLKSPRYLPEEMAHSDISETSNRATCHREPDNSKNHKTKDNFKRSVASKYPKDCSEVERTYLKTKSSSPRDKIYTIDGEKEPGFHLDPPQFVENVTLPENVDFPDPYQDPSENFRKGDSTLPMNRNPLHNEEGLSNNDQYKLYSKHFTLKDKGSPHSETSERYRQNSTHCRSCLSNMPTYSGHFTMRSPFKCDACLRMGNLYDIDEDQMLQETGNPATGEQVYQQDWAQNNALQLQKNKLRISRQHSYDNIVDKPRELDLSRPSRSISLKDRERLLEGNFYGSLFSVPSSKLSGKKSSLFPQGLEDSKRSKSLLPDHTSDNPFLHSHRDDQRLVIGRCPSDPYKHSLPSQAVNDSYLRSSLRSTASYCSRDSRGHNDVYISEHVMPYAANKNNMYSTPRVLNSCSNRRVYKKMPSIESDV
T2 sequence (Q13224 27-1484, other chains not shown): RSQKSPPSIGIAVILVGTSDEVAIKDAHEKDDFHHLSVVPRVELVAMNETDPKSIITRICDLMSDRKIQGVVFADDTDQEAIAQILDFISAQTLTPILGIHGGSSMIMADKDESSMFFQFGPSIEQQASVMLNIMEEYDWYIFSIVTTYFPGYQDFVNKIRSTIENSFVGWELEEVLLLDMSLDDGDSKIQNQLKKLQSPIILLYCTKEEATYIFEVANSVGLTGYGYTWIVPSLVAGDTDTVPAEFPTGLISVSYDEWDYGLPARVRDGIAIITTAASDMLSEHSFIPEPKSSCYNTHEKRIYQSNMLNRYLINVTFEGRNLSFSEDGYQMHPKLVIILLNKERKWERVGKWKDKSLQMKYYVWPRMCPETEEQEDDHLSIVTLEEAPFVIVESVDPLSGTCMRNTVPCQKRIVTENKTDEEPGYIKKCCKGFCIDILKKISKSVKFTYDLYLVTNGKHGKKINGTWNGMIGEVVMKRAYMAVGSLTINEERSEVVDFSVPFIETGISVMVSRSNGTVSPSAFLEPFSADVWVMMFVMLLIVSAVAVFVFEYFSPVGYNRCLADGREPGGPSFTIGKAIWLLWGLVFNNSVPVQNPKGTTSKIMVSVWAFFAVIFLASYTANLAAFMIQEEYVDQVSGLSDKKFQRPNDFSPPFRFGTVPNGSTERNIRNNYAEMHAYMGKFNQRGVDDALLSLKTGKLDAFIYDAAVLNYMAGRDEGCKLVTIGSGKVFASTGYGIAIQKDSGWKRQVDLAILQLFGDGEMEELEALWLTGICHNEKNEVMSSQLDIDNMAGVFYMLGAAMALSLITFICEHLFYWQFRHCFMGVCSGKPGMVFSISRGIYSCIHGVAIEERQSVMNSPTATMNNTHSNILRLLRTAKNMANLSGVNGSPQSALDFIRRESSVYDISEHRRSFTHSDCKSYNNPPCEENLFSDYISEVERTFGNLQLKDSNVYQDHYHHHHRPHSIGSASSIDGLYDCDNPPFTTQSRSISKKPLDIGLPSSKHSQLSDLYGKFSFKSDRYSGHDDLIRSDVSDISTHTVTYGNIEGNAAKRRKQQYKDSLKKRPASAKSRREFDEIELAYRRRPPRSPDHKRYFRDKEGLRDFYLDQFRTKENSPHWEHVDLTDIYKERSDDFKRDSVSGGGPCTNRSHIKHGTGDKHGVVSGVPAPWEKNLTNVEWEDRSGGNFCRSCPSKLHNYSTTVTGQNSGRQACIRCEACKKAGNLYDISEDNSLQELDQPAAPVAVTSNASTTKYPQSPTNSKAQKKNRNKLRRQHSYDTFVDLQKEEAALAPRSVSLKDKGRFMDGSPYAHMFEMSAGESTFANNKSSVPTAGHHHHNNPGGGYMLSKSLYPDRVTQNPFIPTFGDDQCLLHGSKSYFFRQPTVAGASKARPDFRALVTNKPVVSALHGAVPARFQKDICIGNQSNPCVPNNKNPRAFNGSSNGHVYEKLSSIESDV

What is called IC50 is the concentration that gives 50% inhibition. Consider `CCN(CCN)Cc1cccc(Cl)c1` [FP802], for which the IC50 in test [1] was more than 250 µM. Moreover, in test [2], the half-inhibitory concentration (IC50) was more than 250 µM. For the same compound, the half-inhibitory concentration (IC50) in test [3] worked out at 8.7 µM. For the same compound, in the test on SOD1^G93A mice (40 mg/kg/day for 4 weeks from week 15, immunoblot), the “EAAT/GLT-1 expression in lumbar spinal cord” value is listed as “no significant effect”. In the test on SOD1^G93A mice (FP802 for 4 weeks from week 15 (onset), s.c. osmotic pump, vs vehicle), the neurological scores result was “significantly better”. In the test on SOD1^G93A mice (setting [4]), the body weight losses entry is on record as “lower”; the “motor performance, total distances traveled in an open field” value was “significantly improved”; the “rearing behavior in open field” value is on record as “frequent rearing behavior”. The “survival median (lifespan)” value in the test on SOD1^G93A mice (FP802 for 4 weeks starting at week 15, vehicle 151 days) is listed as 164 days. Further, the “neuroinflammatory response, microglia marker Iba1” value with SOD1^G93A mice (ventral horn of lumbar spinal cord, week 19) is on record as “not affected”. The “serum levels of neurofilament light (NfL) chain” value with SOD1^G93A mice (week 19, treatment from week 15) is recorded as “reduction”. In addition, the “soma sizes of lumbar spinal motor neurons” value in the test on SOD1^G93A mice (week 19, vs control-treated SOD1G93A mice) is listed as “larger”. Besides, in the test on SOD1^G93A mice (week 19 vs week 15, treatment from week 15), the “number of lumbar spinal motor neurons (ChAT-positive)” value is “no additional death”.
